According to ChEMBL document CHEMBL4800731, “Data for DCP probe JNJ-65355394” (2021):
Blank lines part the entries; values can stand above or below the compound they belong to.

How the values were obtained:
[1] = target: Alpha-2A adrenergic receptor (Rattus norvegicus) (UniProt P22909); experiment: rAa2 Cerep panel
[2] = target: Galanin receptor type 2 (Homo sapiens) (UniProt O43603); experiment: hGAL2 Cerep panel
[3] = target: Vasoactive intestinal polypeptide receptor 1 (Homo sapiens) (UniProt P32241); experiment: hVPAC1 Cerep panel
[4] = target: T1, Muscarinic acetylcholine receptor M1 (Homo sapiens) (UniProt P11229); experiment: hM1 Cerep panel
T1 sequence (whole entry): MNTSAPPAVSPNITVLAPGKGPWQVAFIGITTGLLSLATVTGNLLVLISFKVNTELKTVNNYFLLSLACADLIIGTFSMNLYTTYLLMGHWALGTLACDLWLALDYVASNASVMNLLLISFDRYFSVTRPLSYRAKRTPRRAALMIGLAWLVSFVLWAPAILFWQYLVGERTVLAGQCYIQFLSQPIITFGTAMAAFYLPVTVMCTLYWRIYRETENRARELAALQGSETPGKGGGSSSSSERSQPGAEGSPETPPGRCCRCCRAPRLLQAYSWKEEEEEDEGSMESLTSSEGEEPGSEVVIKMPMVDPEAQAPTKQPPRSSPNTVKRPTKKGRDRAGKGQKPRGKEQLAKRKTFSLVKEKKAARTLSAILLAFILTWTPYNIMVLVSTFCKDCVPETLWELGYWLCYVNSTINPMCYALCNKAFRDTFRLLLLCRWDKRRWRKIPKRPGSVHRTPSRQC

[5] = target: T2, 5-hydroxytryptamine receptor 3A (Homo sapiens) (UniProt P46098); experiment: h5HT3 Cerep panel
T2 sequence (whole entry): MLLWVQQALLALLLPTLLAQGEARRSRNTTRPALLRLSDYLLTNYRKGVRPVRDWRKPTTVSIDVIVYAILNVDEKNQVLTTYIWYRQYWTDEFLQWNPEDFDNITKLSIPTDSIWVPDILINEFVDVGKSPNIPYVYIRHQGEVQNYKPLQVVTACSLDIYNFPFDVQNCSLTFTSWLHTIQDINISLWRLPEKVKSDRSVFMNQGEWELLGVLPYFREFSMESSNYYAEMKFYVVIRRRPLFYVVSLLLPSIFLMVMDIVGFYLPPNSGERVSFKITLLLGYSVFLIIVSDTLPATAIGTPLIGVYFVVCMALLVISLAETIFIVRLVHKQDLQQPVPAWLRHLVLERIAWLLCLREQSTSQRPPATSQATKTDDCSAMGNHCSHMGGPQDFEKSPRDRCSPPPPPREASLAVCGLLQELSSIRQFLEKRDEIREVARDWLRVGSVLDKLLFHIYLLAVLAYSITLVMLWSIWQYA

[6] = target: T3, Alpha-1B adrenergic receptor (Homo sapiens) (UniProt P35368); experiment: hAb1 Cerep panel
T3 sequence (whole entry): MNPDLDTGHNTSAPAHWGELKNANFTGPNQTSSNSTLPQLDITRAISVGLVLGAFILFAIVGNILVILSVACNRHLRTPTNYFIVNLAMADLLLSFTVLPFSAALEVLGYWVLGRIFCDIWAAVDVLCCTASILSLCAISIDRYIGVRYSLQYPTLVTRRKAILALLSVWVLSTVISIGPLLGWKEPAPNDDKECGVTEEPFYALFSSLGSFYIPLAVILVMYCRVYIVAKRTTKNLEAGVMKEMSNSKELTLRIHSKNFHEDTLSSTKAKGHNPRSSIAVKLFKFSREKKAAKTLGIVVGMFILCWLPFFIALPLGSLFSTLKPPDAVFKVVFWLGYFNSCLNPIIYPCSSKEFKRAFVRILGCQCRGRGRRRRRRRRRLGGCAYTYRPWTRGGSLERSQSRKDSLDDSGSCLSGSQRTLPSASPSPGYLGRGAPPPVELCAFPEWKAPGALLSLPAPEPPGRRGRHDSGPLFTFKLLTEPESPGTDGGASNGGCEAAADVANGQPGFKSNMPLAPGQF

[7] = target: Kappa-type opioid receptor (Homo sapiens, UniProt P41145); experiment: GPCRScan assay: inhibition of KOR; design: radioligand conc. used [nm] 0.6 – 1.2, parental cells stable HEK
[8] = target: D(1A) dopamine receptor (Homo sapiens) (UniProt P21728); experiment: hD1 Cerep panel
[9] = target: Sodium-dependent dopamine transporter (Homo sapiens, UniProt Q01959); experiment: hDAT Cerep panel
[10] = target: Sodium-dependent noradrenaline transporter (Homo sapiens) (UniProt P23975); experiment: hNET Cerep panel
[11] = target: D(3) dopamine receptor (Homo sapiens) (UniProt P35462); details: Compound concentration 10.0 uM
[12] = species: Rattus norvegicus; experiment: rGABA Cerep panel
[13] = target: B2 bradykinin receptor (Homo sapiens) (UniProt P30411); experiment: hBK2 Cerep panel
[14] = target: Vasopressin V1a receptor (Homo sapiens) (UniProt P37288); experiment: hV1a Cerep panel
[15] = species: Rattus norvegicus; experiment: rCaCH (nitrendipine) Cerep panel
[16] = species: Rattus norvegicus; experiment: rSKCaCH Cerep panel
[17] = target: Histamine H2 receptor (Homo sapiens) (UniProt P25021); details: Compound concentration 10.0 uM
[18] = target: T4, 5-hydroxytryptamine receptor 1A (Homo sapiens) (UniProt P08908); experiment: h5HT1A Cerep panel
T4 sequence (whole entry): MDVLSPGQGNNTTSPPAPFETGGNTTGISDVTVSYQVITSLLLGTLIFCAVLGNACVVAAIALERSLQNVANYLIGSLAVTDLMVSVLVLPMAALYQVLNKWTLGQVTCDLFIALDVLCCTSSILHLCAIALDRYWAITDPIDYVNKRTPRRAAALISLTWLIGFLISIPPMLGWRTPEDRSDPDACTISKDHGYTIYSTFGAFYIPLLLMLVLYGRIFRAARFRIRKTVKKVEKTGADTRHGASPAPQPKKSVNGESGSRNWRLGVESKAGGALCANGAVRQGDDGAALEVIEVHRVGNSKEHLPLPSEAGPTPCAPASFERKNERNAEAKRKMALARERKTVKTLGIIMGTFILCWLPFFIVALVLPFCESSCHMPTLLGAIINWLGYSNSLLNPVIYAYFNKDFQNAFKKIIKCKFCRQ

[19] = target: 5-hydroxytryptamine receptor 6 (Homo sapiens) (UniProt P50406); experiment: h5HT6 Cerep panel
[20] = target: Neuropeptide Y receptor type 2 (Homo sapiens) (UniProt P49146); experiment: hNPY2 Cerep panel
[21] = species: Rattus norvegicus; experiment: rKCH Cerep panel
[22] = species: Rattus norvegicus; experiment: rCaCH (D888) Cerep panel
[23] = target: Sigma intracellular receptor 2 (Homo sapiens, UniProt Q5BJF2); experiment: GPCRScan assay: inhibition of Sigma 2; design: radioligand conc. used [nm] 5.0, parental cells HEKT
[24] = target: Sigma non-opioid intracellular receptor 1 (Homo sapiens, UniProt Q99720); experiment: GPCRScan assay: inhibition of Sigma 1; design: radioligand conc. used [nm] 4.0 – 5.0, parental cells HEKT
[25] = target: Beta-3 adrenergic receptor (Homo sapiens) (UniProt P13945); details: Compound concentration 10.0 uM
[26] = target: Sodium-dependent serotonin transporter (Homo sapiens, UniProt P31645); experiment: GPCRScan assay: inhibition of SERT; design: radioligand conc. used [nm] 1.5 – 2.0, parental cells stable HEK
Sodium-dependent serotonin transporter, sequence (P31645 whole entry): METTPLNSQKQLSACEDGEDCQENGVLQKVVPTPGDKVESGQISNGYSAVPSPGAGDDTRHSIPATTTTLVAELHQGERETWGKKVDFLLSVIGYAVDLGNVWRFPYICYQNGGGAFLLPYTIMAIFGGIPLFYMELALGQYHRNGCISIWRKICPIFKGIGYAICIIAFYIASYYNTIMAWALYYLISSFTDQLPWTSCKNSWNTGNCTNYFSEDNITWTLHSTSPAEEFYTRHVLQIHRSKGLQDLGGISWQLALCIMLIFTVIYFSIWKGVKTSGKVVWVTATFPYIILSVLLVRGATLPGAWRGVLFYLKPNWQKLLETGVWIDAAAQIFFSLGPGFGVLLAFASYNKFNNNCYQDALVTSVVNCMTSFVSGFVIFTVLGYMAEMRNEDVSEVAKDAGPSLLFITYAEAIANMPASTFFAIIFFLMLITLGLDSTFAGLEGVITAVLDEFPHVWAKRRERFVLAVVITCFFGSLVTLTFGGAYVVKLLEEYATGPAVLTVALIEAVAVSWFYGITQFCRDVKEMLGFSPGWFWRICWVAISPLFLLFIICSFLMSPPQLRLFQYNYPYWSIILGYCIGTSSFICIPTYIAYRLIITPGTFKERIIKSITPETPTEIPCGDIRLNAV

Sigma intracellular receptor 2, sequence (Q5BJF2 whole entry): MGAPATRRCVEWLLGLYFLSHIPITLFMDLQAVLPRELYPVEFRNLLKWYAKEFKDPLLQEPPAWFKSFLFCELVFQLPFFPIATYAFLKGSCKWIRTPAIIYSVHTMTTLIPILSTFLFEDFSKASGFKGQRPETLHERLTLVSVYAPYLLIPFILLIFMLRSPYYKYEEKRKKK
Kappa-type opioid receptor, sequence (P41145 whole entry): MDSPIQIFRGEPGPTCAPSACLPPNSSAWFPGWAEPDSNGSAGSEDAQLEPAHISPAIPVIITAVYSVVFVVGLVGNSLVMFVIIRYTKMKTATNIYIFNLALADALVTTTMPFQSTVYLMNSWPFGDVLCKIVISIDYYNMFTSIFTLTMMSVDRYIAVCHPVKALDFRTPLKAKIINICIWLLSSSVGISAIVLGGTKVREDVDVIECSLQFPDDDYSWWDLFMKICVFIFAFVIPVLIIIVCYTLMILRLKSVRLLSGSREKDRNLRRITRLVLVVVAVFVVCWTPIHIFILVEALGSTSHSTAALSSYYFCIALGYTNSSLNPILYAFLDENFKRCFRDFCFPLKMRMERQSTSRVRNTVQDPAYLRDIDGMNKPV
Sodium-dependent dopamine transporter, sequence (Q01959 whole entry): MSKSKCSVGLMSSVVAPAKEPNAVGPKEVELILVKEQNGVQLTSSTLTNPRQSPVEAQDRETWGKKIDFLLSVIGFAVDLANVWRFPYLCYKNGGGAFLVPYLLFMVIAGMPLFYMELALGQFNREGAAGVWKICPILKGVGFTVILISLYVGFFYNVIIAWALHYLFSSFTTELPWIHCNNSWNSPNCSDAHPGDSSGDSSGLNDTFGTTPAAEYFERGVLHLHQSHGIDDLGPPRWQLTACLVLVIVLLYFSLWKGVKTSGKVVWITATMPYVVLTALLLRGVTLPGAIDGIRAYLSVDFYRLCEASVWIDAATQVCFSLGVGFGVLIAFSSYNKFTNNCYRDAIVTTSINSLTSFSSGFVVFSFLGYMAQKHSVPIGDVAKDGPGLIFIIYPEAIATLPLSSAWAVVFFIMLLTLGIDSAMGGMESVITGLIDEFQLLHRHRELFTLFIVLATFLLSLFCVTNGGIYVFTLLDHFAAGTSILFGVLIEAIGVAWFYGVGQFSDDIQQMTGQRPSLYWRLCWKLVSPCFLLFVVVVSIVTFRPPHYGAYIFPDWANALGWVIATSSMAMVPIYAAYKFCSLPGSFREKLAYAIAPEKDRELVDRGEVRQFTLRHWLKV
Sigma non-opioid intracellular receptor 1, sequence (Q99720 whole entry): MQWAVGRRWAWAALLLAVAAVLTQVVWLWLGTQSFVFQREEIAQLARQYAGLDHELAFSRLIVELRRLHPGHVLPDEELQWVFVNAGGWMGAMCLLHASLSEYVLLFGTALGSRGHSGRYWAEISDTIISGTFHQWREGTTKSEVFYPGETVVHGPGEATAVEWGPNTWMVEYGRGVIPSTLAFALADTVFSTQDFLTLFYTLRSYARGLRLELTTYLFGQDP
Neuropeptide Y receptor type 2 (Homo sapiens), sequence (P49146 whole entry): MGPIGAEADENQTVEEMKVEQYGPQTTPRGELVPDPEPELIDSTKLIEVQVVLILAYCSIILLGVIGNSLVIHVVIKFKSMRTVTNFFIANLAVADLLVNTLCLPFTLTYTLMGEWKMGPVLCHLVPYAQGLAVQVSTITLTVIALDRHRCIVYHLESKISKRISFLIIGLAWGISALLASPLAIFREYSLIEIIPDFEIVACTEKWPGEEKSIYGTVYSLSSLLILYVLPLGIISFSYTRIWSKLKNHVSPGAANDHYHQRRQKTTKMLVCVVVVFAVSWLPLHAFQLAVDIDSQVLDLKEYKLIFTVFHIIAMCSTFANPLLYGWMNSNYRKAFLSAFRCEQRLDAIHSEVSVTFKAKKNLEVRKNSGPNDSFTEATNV
Sodium-dependent noradrenaline transporter (Homo sapiens), sequence (P23975 whole entry): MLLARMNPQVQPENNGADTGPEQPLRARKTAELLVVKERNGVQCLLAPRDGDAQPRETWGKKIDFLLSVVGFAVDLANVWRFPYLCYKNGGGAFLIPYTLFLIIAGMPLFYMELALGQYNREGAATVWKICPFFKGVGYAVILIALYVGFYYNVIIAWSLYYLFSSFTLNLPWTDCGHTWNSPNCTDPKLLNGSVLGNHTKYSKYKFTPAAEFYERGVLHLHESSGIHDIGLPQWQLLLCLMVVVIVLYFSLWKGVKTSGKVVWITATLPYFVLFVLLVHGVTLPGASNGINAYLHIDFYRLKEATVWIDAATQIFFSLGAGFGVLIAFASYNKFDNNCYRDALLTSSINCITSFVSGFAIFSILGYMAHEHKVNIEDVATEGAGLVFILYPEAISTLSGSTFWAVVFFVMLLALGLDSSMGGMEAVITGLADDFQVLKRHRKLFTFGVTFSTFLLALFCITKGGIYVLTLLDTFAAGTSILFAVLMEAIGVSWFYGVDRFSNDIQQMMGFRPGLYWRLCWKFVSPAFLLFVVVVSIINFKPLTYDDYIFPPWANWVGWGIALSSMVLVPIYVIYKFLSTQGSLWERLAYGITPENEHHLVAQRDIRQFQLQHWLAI
B2 bradykinin receptor (Homo sapiens), sequence (P30411 whole entry): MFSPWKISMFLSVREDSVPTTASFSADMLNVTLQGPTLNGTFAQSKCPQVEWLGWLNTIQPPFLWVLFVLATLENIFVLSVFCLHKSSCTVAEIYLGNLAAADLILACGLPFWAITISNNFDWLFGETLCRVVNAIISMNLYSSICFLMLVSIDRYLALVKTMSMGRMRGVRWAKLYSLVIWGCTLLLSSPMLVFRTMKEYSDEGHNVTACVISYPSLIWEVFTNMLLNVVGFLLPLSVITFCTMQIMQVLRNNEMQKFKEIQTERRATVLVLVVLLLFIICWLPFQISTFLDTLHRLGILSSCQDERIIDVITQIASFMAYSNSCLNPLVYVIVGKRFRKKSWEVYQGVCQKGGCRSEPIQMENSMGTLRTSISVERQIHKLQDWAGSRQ
Vasopressin V1a receptor (Homo sapiens), sequence (P37288 whole entry, looked up): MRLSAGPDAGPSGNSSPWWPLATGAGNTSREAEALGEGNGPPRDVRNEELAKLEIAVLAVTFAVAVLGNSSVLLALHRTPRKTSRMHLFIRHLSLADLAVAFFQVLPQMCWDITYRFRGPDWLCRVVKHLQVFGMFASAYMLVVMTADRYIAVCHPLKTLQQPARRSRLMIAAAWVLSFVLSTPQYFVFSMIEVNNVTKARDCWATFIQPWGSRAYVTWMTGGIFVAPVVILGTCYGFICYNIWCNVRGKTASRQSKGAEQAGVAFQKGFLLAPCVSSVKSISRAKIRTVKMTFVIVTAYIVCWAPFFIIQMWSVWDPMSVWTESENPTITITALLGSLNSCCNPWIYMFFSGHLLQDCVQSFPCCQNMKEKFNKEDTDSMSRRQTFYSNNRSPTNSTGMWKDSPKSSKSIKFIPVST
Vasoactive intestinal polypeptide receptor 1 (Homo sapiens), sequence (P32241 whole entry): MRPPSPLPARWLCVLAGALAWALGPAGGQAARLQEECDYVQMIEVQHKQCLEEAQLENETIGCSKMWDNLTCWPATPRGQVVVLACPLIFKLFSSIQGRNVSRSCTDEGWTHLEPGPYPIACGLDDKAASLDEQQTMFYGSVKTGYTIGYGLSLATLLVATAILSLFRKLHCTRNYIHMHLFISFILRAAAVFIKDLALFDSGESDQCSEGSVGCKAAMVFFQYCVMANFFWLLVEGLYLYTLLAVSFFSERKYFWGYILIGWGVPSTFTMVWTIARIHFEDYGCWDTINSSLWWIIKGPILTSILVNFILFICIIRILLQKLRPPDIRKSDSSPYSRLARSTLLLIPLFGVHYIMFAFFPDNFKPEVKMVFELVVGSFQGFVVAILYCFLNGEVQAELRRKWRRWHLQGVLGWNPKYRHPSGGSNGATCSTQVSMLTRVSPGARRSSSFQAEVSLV
5-hydroxytryptamine receptor 6 (Homo sapiens), sequence (P50406 whole entry): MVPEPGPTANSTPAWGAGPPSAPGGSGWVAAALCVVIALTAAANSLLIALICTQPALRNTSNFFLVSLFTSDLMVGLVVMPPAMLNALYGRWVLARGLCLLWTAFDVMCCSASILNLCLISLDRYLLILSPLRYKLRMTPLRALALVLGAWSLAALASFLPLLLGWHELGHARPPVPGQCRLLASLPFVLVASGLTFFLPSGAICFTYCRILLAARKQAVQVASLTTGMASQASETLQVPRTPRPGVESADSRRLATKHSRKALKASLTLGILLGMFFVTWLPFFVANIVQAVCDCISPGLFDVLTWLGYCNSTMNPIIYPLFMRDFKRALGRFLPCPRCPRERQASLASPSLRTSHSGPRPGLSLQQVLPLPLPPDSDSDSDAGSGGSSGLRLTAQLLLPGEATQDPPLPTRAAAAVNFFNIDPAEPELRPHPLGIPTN

- effect [1]: 69%
- effect [2]: 1.4%
- effect [3]: -10.1%
- effect [4]: 32.5%
- effect [5]: 1.85%
- effect [6]: 11.2%
- Ki ([7]; read-out: Ki): 773 nM
- Ki ([7]; read-out: pKi (converted)): 741 nM
- effect [8]: 20.1%
- effect [9]: 19.3%
- effect [10]: 5.75%
- inhibition [11]: 10.3%
- effect [12]: -9.8%
- effect [13]: 10.8%
- effect [14]: 7.65%
- effect [15]: 14%
- effect [16]: 35.4%
- inhibition [17]: 3.45%
- effect [18]: 9.45%
- effect [19]: 14.2%
- effect [20]: -2.7%
- effect [21]: 1%
- effect [22]: 4.9%
SMILES: CC(=O)Nc1ncc(CN2CCC[C@H](Cc3cc(C)nc(C)c3)C2)s1 [JNJ-65355394]

- Ki ([23]; read-out: Ki): 1400 nM
- Ki ([23]; read-out: pKi (converted)): 1350 nM
- Ki [24]: 63.3 nM
- inhibition [25]: -8.59%
- Ki ([26]; read-out: Ki): 2610 nM
- Ki ([26]; read-out: pKi (converted)): 2570 nM
SMILES: CC(=O)Nc1nc(CN2CCC[C@H](Cc3cc(C)nc(C)c3)C2)cs1 [JNJ-73924149]
